What all share (format): cell-based
For one assay, the system named is MC3T3-E1 cells. Nature of the assay: DNA quantification (cell number) of cells on peptide-coated Ti. To be noted: 48 h culture on Ti coated with 50 μg/ml peptide, FIG. 9. As to the method: Under aseptic conditions, implants were immersed in a 3:7 (v/v) HNO3-DI water solution for 30 min at room temperature. Then, they were rinsed with milliQ water and placed in a covered milliQ water bath for 24 h. Implants were dried with N2 and were placed in a 96-well plates. Then, 200 μl of 50 μg/ml peptide solutions in PBS were added to each implant. Absorption took place for 24 h at 37° C. in a humidified atmosphere. After 24 h peptide solutions were collected and surfaces were washed with 200 μl of PBS and air-dried in order to perform cell experiments. The surfaces were denoted Ti (uncoated Ti), P1 (Ti coated with IP10-RGD), P2 (Ti coated with IP10mut-RGD), P3 (Ti coated with IP10-RGDmut) and P4 (Ti coated with IP10mut-RGDmu).
MC3T3-E1 cells were routinely cultured at 37° C. in a humidified atmosphere of 5% CO2, and maintained in α-minimum essential medium (α-MEM) supplemented with 10% fetal bovine serum (FBS) and antibiotics (50 IU penicillin/ml and 50 μg streptomycin/ml). 7.0×10^3 cells were seeded on the peptide-coated implants. Trypan blue stain was used to determine total and viable cell number. The same number of cells was cultured in parallel in plastic culture plates in the experiment. All experiments were performed after 15 passages of the MC3T3-E1 cells.
Culture media was removed from wells and plates were frozen at −80° C. until the experiment was carried out. At the day of analysis, 100 μl of distilled water were added to each well. Plates were incubated for 1 hour at room temperature. Again, plates were frozen at −80° C. to lysate cells. Plates were thawed until reaching room temperature and 100 μl of Hoechst 33258 at 20 μg/ml in THE buffer were added. Then, 200 μl aliquots were transferred to 96-well fluorescence plates and a spectrophotometer was set to record fluorescence. Relative fluorescence units were correlated with the cell number using a linear standard curve.

A further assay concerns integrin β3 (Itgb3). Nature of the assay: Real-time RT-PCR gene expression in MC3T3-E1 cells on peptide-coated Ti. To be noted: after 72 h of cell culture, FIG. 11. As to the method:
(§1) Under aseptic conditions, implants were immersed in a 3:7 (v/v) HNO3-DI water solution for 30 min at room temperature. Then, they were rinsed with milliQ water and placed in a covered milliQ water bath for 24 h. Implants were dried with N2 and were placed in a 96-well plates. Then, 200 μl of 50 μg/ml peptide solutions in PBS were added to each implant. Adsorption took place for 24 h at 37° C. in a humidified atmosphere. After 24 h peptide solutions were collected and surfaces were washed with 200 μl of PBS and air-dried in order to perform in vitro experiments. […]
(§2) Total RNA was isolated using Tripure, according to the manufacturer's protocol. Total RNA was quantified at 260 nm using a Nanodrop spectrophotometer. […]
(§3) Each reaction contained 7 μl Lightcycler-FastStart DNA MasterPLUS SYBR Green I (containing Fast Start Taq polymerase, reaction buffer, dNTPs mix, SYBRGreen I dye and MgCl2), 0.5 μM of each, the sense and the antisense specific primers and 3 μl of the cDNA dilution in a final volume of 10 μl. […] After each cycle, fluorescence was measured at 72° C. […]
(§4) All samples were normalized by the geometric mean of the expression levels of 18S rRNA and Gapdh and fold changes were related to day 1 of culture using the mathematical model described by Pfaffl, A new mathematical model for relative quantification in real-time RT-PCR, Nucleic Acids Research 2001, 29: e45: […]
A general note: In qPCR the cycle at which signal appears reflects the starting amount.

The subject of a further assay is Integrin α8 (Itga8). The description is as above. To be noted: after 72 h of cell culture, FIG. 11. On the procedure: as §1, §2, §3, §4
The next assay concerns integrin β3. Nature of the assay: Immunocytochemistry of integrin β3 in MC3T3-E1 cells on peptide-coated Ti. To be noted: after 72 h of culture, FIG. 12. On the procedure:
Under aseptic conditions, implants were immersed in a 3:7 (v/v) HNO3-DI water solution for 30 min at room temperature. Then, they were rinsed with milliQ water and placed in a covered milliQ water bath for 24 h. Implants were dried with N2 and were placed in a 96-well plates. Then, 200 μl of 50 μg/ml peptide solutions in PBS were added to each implant. Adsorption took place for 24 h at 37° C. in a humidified atmosphere. After 24 h peptide solutions were collected and surfaces were washed with 200 μl of PBS and air-dried in order to perform in vitro experiments.
MC3T3-E1 cells were routinely cultured at 37° C. in a humidified atmosphere of 5% CO2, and maintained in α-MEM supplemented with 10% FBS and antibiotics (50 IU penicillin/ml and 50 μg streptomycin/ml). 7.0×10^3 cells were seeded on the peptide-coated implants. Trypan blue stain was used to determine total and viable cell number. The same number of cells was cultured in parallel in plastic culture plates in the experiment. All experiments were performed after 4 passages of the MC3T3-E1 cells.
Cells grown for 24 and 72 h on the surfaces were fixed for 15 min with 4% formaldehyde in PBS at room temperature. Cells were incubated with 0.1% Triton X-100 for 5 min, 1% bovine serum albumin for 30 min and then with anti-integrin beta-3 antibody for 1 h at 1:50 dilution in PBS. Then, a Cy3-conjugated goat anti-rabbit IgG was used as secondary antibody for 1.5 h at 1:200 dilution in PBS. For actin cytoskeleton visualization, cells were stained with phalloidin-FITC 5 μg/mL in PBS for 30 min. Cells were washed with PBS and coin-shaped samples were placed on slides. Finally, a drop of Fluoroshield with DAPI was added and cover glasses were mounted on the samples. Two samples of each group were used to perform the experiment and two images of each sample were taken with the confocal microscope (Leica DMI 4000B equipped with Leica TCS SPE laser system).

The record followed here is patent publication US9957311B2, “Surface-binding peptide” (TIKOMED AB, priority 2013, dated 2018).

“Also recorded” adds a separate entry of the source.

Take “MKKKGEGGGGGGGGRGDS (IP-10 derived peptide connected to RGD motif via poly-G-linker) [Peptide P1, surface P1 = Ti coated with it]”: the “number of cells (DNA quantification)” value in the assay on MC3T3-E1 cells is “highest number of cells”. The “expression of Itgb3 compared with uncoated surfaces” value in the assay on integrin β3 (Itgb3) is listed as “increased gene expression”. For the same sequence, the “expression of Itga8 compared with uncoated surfaces” value in the assay with Integrin α8 (Itga8) is on record as “increased gene expression”. Also, the “integrin β3 staining” value in the assay with integrin β3 was “allowed integrin β3 visualization; also recorded: highest integrin β3 staining; also recorded: allowed specific anti-integrin β3 staining”.
